The values that follow come from ChEMBL document CHEMBL3396978, “Design, synthesis of new β-carboline derivatives and their selective anti-HIV-2 activity” (Bioorg Med Chem Lett, 2015).

Series [1] relates to Human immunodeficiency virus 1. Kind of series: Antiviral activity against HIV1 3B infected infected in human MT4 cells assessed as protection against virus-induced cytotoxicity after 5 days by MTT assay. Type of series: functional, organism-based. To be noted: Human immunodeficiency virus 1, 3B, MT4, 120 h.
The test system of the next series is HeLa. Put plainly: Cytotoxicity against mock-infected human […] cells by MTT assay. Type of series: functional.
Series [2] concerns Human immunodeficiency virus 2. Put plainly: Antiviral activity against HIV2 ROD infected in human MT4 cells assessed as protection against virus-induced cytotoxicity after 5 days by MTT assay. Type of series: functional, organism-based. The note with it: Human immunodeficiency virus 2, ISOLATE ROD, MT4, 120 h.
Series [3] can be described thus: Selectivity index, ratio of CC50 for mock-infected human […] cells to EC50 for HIV2 ROD infected in human MT4 cells. Type of series: toxicity, cell-based. To be noted: read-out: Ratio CC50/EC50.
Series [4] addresses Reverse transcriptase (Human immunodeficiency virus 2) (UniProt Q06347). Put plainly: Inhibition of HIV2 reverse transcriptase using poly(C).oligo(dG) template/primer after 30 mins at 200 ug/mL.
Series [5] has the same target. Kind of series: Inhibition of HIV2 reverse transcriptase using poly(A).oligo(dT) template/primer after 30 mins at 200 ug/mL.
Series [6] concerns Human immunodeficiency virus. Kind of series: Antiviral activity against HIV. The note with it: Human immunodeficiency virus 1. Type of series: functional, organism-based.
The test system of series [7] is Human immunodeficiency virus 1. Put plainly: Antiviral activity against HIV1. Type of series: functional, organism-based.
Series [8] relates to Human immunodeficiency virus 2. Put plainly: Antiviral activity against HIV2. Type of series: functional, organism-based.

The source made the active and inactive calls. The rule behind the calls is not given here. A value given as a limit tells only on which side of the number the result lay.

Chain of Reverse transcriptase (Human immunodeficiency virus 2) (Q06347 as listed by the source): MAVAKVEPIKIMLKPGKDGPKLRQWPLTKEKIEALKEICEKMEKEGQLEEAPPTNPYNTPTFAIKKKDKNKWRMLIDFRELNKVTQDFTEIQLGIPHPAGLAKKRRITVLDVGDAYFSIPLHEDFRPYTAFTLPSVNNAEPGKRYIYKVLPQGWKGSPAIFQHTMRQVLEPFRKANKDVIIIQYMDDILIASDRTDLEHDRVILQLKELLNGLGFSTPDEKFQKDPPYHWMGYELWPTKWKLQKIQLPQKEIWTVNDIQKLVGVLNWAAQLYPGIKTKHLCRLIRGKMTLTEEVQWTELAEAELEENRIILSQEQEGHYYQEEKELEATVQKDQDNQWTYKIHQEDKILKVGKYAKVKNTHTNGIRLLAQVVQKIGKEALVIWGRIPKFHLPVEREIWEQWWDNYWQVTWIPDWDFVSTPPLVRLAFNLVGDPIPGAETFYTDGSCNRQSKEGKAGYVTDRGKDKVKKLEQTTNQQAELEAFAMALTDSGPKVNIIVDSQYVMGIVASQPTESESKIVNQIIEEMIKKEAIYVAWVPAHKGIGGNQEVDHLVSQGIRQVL

Consider `Cn1c2ccccc2c2cc(C(=O)N3CCN(c4ccncc4)CC3)nc(-c3ccccc3)c21`, for which the EC50 in series [1] and in series [2] was > 4.02 µM throughout. The midpoint of cytotoxicity with HeLa, the CC50, lay at 4.02 µM. In addition, the selectivity ratio in [3] is < 1.
`Cn1c2ccccc2c2cc(C(=O)N3CCN(c4cccc(Cl)c4Cl)CC3)nc(-c3ccccc3)c21`: the EC50 in [1] and in [2] was > 63.9 µM throughout. Besides, the CC50 in the series on HeLa was 63.9 µM. Further, in series [3], the selectivity ratio was < 1.
`Cn1c2ccccc2c2cc(C(=O)N3CCN(c4ccc([N+](=O)[O-])cc4)CC3)nc(-c3ccccc3)c21`: the EC50 in series [1] and in series [2] was > 204 µM throughout. The CC50 in the series with HeLa was > 204 µM.
On to `O=c1[nH]cnc2c1ncn2[C@H]1CC[C@@H](CO)O1` [DIDANOSINE], for which the EC50 in [1] stood at 2.56 µM; in series [2], 2.27 µM. Also, in the series with HeLa, the CC50 is > 50 µM. The selectivity ratio in series [3] was > 21.7.
With `Cc1ccccc1N1CCN(C(=O)c2cc3c4ccccc4n(C)c3c(-c3ccccc3)n2)CC1`, the EC50 in [1] and in [2] was > 16.9 µM each time. In the series on HeLa, this compound gave a CC50 of 16.9 µM. Also, in [3], the selectivity ratio was < 1.
Consider `Cc1ccnc2c1NC(=O)c1cccnc1N2C1CC1` [NEVIRAPINE], for which the values for the EC50 in series [1] and in series [2] were 0.027 µM and > 4 µM, respectively. Further, in the series on HeLa, the CC50 is > 4 µM.
Take `Cn1c2ccccc2c2cc(C(=O)N3CCN(c4ccccc4F)CC3)nc(-c3ccccc3)c21`: the inhibition result in series [4] and in series [5] was “inactive” throughout. In addition, the EC50 is > 50.6 µM in series [1] and 5.4 µM in [2]. The CC50 in the series on HeLa was found to be 50.6 µM. Moreover, in series [3], the selectivity ratio is 9.
`Cn1c2ccccc2c2cc(C(=O)N3CCN(c4ccc(Cl)cc4)CC3)nc(-c3ccccc3)c21`: the EC50 in [1] and in series [2] was > 208 µM each time. Besides, the CC50 in the series on HeLa is > 208 µM.
In the case of `Cc1cn([C@H]2C[C@H](N=[N+]=[N-])[C@@H](CO)O2)c(=O)[nH]c1=O` [ZIDOVUDINE], the results for the EC50 in series [1] and in series [2] were 0.0019 µM and 0.0016 µM, respectively. The CC50 in the series with HeLa is > 25 µM. In addition, the selectivity ratio in [3] is > 12500.
For the compound `Cn1c2ccccc2c2cc(C(=O)N3CCN(c4ccc(F)cc4)CC3)nc(-c3ccccc3)c21`, the inhibition result in [4] and in series [5] was “inactive” throughout. The EC50 in series [1] was > 189 µM; in [2], 2.6 µM. Also, the CC50 in the series on HeLa is > 189 µM. The selectivity ratio in [3] was > 72.
`Cn1c2ccccc2c2cc(C(=O)N3CCN(c4ccccc4Cl)CC3)nc(-c3ccccc3)c21`: the EC50 in [1] and in [2] was > 23.6 µM throughout. In the series with HeLa, this compound gave a CC50 of 23.6 µM. Further, the selectivity ratio in series [3] is < 1.
On to `Cn1c2ccccc2c2cc(C(=O)N3CCN(c4ccccc4)CC3)nc(-c3ccccc3)c21`, for which the inhibition result in series [4] and in series [5] was “inactive” in each case. Also, the EC50 in [1] is > 224 µM; in series [2], 29.4 µM. The CC50 in the series with HeLa is > 224 µM. Further, the selectivity ratio in series [3] was > 8.
Take `Nc1ccn([C@@H]2CS[C@H](CO)O2)c(=O)n1` [LAMIVUDINE]: the EC50 in [1] was 0.89 µM; in series [2], 3.56 µM. Further, the CC50 in the series with HeLa is > 20 µM. In series [3], the selectivity ratio was > 5.6.
Take `O=C(O)c1cc2c([nH]c3ccccc32)c(-c2ccc(CO)o2)n1` [FLAZINE]: the concentration giving a half-maximal response (EC50) in series [6] was 2.36 µM.
With `Cc1ccc(N2CCN(C(=O)c3cc4c5ccccc5n(C)c4c(-c4ccccc4)n3)CC2)cc1`, the inhibition entry in series [4] and in series [5] was “inactive” throughout. Moreover, the EC50 in series [1] is > 29.6 µM; in series [2], 3.3 µM. Also, the CC50 with HeLa was found to be 29.6 µM. In addition, in series [3], the selectivity ratio came to 9.
Turning to `Cn1c2ccccc2c2cc(C(=O)N3CCN(c4cccc(Cl)c4)CC3)nc(-c3ccccc3)c21`, the EC50 in series [1] and in [2] was > 111 µM in each case. In the series with HeLa, this compound displayed a CC50 of 111 µM. For the same compound, the selectivity ratio in series [3] is < 1.
In the case of `COc1cccc(N2CCN(C(=O)c3cc4c5ccccc5n(C)c4c(-c4ccccc4)n3)CC2)c1`, the EC50 in series [1] and in series [2] was > 134 µM throughout. Half-maximal cytotoxicity in the series with HeLa (CC50) was put at 134 µM. In addition, in series [3], the selectivity ratio was < 1.
`Cn1c2ccccc2c2cc(C(=O)N3CCN(c4ccccn4)CC3)nc(-c3ccccc3)c21`: the concentration giving a half-maximal response (EC50) in series [1] and in series [2] was > 19.2 µM throughout. Further, half-maximal cytotoxicity in the series with HeLa (CC50) was put at 19.2 µM. Further, in series [3], the selectivity ratio was < 1.
For `COc1ccccc1N1CCN(C(=O)c2cc3c4ccccc4n(C)c3c(-c3ccccc3)n2)CC1`, the inhibition result in series [4] and in [5] was “inactive” each time. Moreover, the figures for the concentration giving a half-maximal response (EC50) in series [1] and in series [2] were > 25.3 µM and 3.2 µM, respectively. For the same compound, in the series with HeLa, the CC50 was found to be 25.3 µM. The selectivity ratio in series [3] was determined as 8.
As for `COc1ccc(N2CCN(C(=O)c3cc4c5ccccc5n(C)c4c(-c4ccccc4)n3)CC2)cc1`, the EC50 in series [1] and in [2] was > 210 µM throughout. The CC50 in the series on HeLa was > 210 µM.
Take `NC(=O)c1cc2c([nH]c3ccccc32)c(-c2ccc(CO)o2)n1`: the EC50 in series [7] amounted to 0.38 µM; in series [8], 0.57 µM.
On to `Cn1c2ccccc2c2cc(C(=O)N3CCN(Cc4ccccc4)CC3)nc(-c3ccccc3)c21`, for which the EC50 in [1] and in series [2] was > 21.7 µM each time. Besides, the CC50 in the series with HeLa stood at 21.7 µM. Moreover, the selectivity ratio in series [3] is < 1.
